Measured values taken from paper PMC5218480 (PLoS ONE, 2017).

System: MV-4-11 cells
Assay: Gene expression microarray analysis (Affymetrix PrimeView) and GSEA
Type: cell-based, human
Set-up: RFU PODN (11730768_x_at) / Fold change /veh PODN (11730768_x_at) / RFU LINC00158 (11744669_a_at) / Fold change /veh LINC00158 (11744669_a_at) / RFU DUSP10 (11751237_a_at) / Fold change /veh DUSP10 (11751237_a_at) / RFU ID3 (11757404_x_at) / Fold change /veh ID3 (11757404_x_at) / RFU PLEKHG5 (11737974_s_at) / Fold change /veh PLEKHG5 (11737974_s_at) / RFU LRRC4B (11730491_at) / Fold change /veh LRRC4B (11730491_at) / RFU GIMAP4 (11747438_a_at) / Fold change /veh GIMAP4 (11747438_a_at) / RFU KRT8 (11758183_x_at) / Fold change /veh KRT8 (11758183_x_at) / RFU CNN1 (11734310_a_at) / Fold change /veh CNN1 (11734310_a_at) / RFU VPS37D (11726825_at) / Fold change /veh VPS37D (11726825_at) / RFU C10orf10 (11716522_x_at) / Fold change /veh C10orf10 (11716522_x_at) / RFU KIR2DL2 /// KIR2DL4 /// KIR2DL5A /// KIR2DL5B /// KIR2DS1 /// KIR2DS2 /// KIR2DS3 /// KIR2DS4 /// KIR3DL3 /// KIR3DL3 /// KIR3DS1 (11738374_at) / Fold change /veh KIR2DL2 /// KIR2DL4 /// KIR2DL5A /// KIR2DL5B /// KIR2DS1 /// KIR2DS2 /// KIR2DS3 /// KIR2DS4 /// KIR3DL3 /// KIR3DL3 /// KIR3DS1 (11738374_at) / RFU C1QL1 (11718748_at) / Fold change /veh C1QL1 (11718748_at) / RFU TMPRSS4 (11747572_a_at) / Fold change /veh TMPRSS4 (11747572_a_at) / RFU HAMP (11756126_x_at) / Fold change /veh HAMP (11756126_x_at) / RFU RNFT2 (11725882_a_at) / Fold change /veh RNFT2 (11725882_a_at) / RFU NR4A2 (11747474_a_at) / Fold change /veh NR4A2 (11747474_a_at) / RFU ABCC12 (11746883_a_at) / Fold change /veh ABCC12 (11746883_a_at) / RFU TMEM136 (11760407_x_at) / Fold change /veh TMEM136 (11760407_x_at) / RFU CLDN22 /// WWC2 (11732394_at) / Fold change /veh CLDN22 /// WWC2 (11732394_at) / RFU HLA-DPB1 (11760878_x_at) / Fold change /veh HLA-DPB1 (11760878_x_at) / RFU SPINT1 (11716480_a_at) / Fold change /veh SPINT1 (11716480_a_at) / RFU GAP43 (11754022_s_at) / Fold change /veh GAP43 (11754022_s_at) / RFU A4GNT (11735810_at) / Fold change /veh A4GNT (11735810_at) / RFU PRB3 (11715151_x_at) / Fold change /veh PRB3 (11715151_x_at) / RFU TUBB4B (11761932_at) / Fold change /veh TUBB4B (11761932_at) / RFU CAPN14 (11732068_a_at) / Fold change /veh CAPN14 (11732068_a_at) / RFU TMCC2 (11721928_a_at) / Fold change /veh TMCC2 (11721928_a_at) / RFU IRGQ (11745062_a_at) / Fold change /veh IRGQ (11745062_a_at) / RFU FAM174B (11720279_a_at) / Fold change /veh FAM174B (11720279_a_at) / RFU TMPRSS4 (11748680_a_at) / Fold change /veh TMPRSS4 (11748680_a_at) / RFU FAM212B (11763350_a_at) / Fold change /veh FAM212B (11763350_a_at) / RFU PLEKHG5 (11743358_a_at) / Fold change /veh PLEKHG5 (11743358_a_at) / RFU ZSCAN30 (11745921_a_at) / Fold change /veh ZSCAN30 (11745921_a_at) / RFU CMKLR1 (11741424_a_at) / Fold change /veh CMKLR1 (11741424_a_at) / RFU LOC101060620 /// MAPK8IP1 (11723275_at) / Fold change /veh LOC101060620 /// MAPK8IP1 (11723275_at) / RFU SPTSSB (11747773_x_at) / Fold change /veh SPTSSB (11747773_x_at) / RFU PRSS12 (11739890_at) / Fold change /veh PRSS12 (11739890_at) / RFU BIN1 (11741810_x_at) / Fold change /veh BIN1 (11741810_x_at) / RFU WNT11 (11732464_a_at) / Fold change /veh WNT11 (11732464_a_at) / RFU C10orf10 (11716521_a_at) / Fold change /veh C10orf10 (11716521_a_at) / RFU C5orf56 (11738089_at) / Fold change /veh C5orf56 (11738089_at) / RFU CYB561 (11721691_x_at) / Fold change /veh CYB561 (11721691_x_at) / RFU ANKRD19P (11752326_a_at) / Fold change /veh ANKRD19P (11752326_a_at) / RFU OR2T12 /// OR2T33 /// OR2T8 (11738714_s_at) / Fold change /veh OR2T12 /// OR2T33 /// OR2T8 (11738714_s_at) / RFU VCAN (11748164_a_at) / Fold change /veh VCAN (11748164_a_at) / RFU JSRP1 (11732532_at) / Fold change /veh JSRP1 (11732532_at) / RFU KRTAP10-11 (11738290_x_at) / Fold change /veh KRTAP10-11 (11738290_x_at) / RFU MYO3A (11730013_a_at) / Fold change /veh MYO3A (11730013_a_at) / RFU EBF3 (11725865_a_at) / Fold change /veh EBF3 (11725865_a_at) / RFU CAMK2N1 (11719241_x_at) / Fold change /veh CAMK2N1 (11719241_x_at) / RFU C5orf56 (11738088_a_at) / Fold change /veh C5orf56 (11738088_a_at) / RFU OLFML3 (11715873_a_at) / Fold change /veh OLFML3 (11715873_a_at) / RFU LOC100653217 /// NTM (11731650_a_at) / Fold change /veh LOC100653217 /// NTM (11731650_a_at) / RFU MAPK11 (11762145_a_at) / Fold change /veh MAPK11 (11762145_a_at) / RFU FIZ1 (11724087_x_at) / Fold change /veh FIZ1 (11724087_x_at) / RFU OASL (11726364_x_at) / Fold change /veh OASL (11726364_x_at) / RFU SOX15 (11748057_x_at) / Fold change /veh SOX15 (11748057_x_at) / RFU CD79A (11719716_a_at) / Fold change /veh CD79A (11719716_a_at) / RFU HIST1H1D (11736915_at) / Fold change /veh HIST1H1D (11736915_at) / RFU CASKIN2 (11723855_a_at) / Fold change /veh CASKIN2 (11723855_a_at) / RFU LOC730098 (11760151_x_at) / Fold change /veh LOC730098 (11760151_x_at) / RFU OR4N2 (11742367_at) / Fold change /veh OR4N2 (11742367_at) / RFU PRRT2 (11749266_a_at) / Fold change /veh PRRT2 (11749266_a_at) / RFU SNX32 (11753110_a_at) / Fold change /veh SNX32 (11753110_a_at) / RFU CDHR5 (11726645_a_at) / Fold change /veh CDHR5 (11726645_a_at) / RFU RCAN1 (11760418_a_at) / Fold change /veh RCAN1 (11760418_a_at) / RFU FAM167A (11723789_a_at) / Fold change /veh FAM167A (11723789_a_at) / RFU FAM26E (11764081_at) / Fold change /veh FAM26E (11764081_at) / RFU ISYNA1 (11749810_s_at) / Fold change /veh ISYNA1 (11749810_s_at) / RFU ACY1 (11761880_at) / Fold change /veh ACY1 (11761880_at) / RFU 11764098_at / Fold change /veh 11764098_at / RFU SAMD14 (11745864_x_at) / Fold change /veh SAMD14 (11745864_x_at) / RFU NPB (11741838_a_at) / Fold change /veh NPB (11741838_a_at) / RFU TMPRSS6 (11731388_a_at) / Fold change /veh TMPRSS6 (11731388_a_at) / RFU KRTAP10-2 (11738614_at) / Fold change /veh KRTAP10-2 (11738614_at) / RFU ARHGAP8 /// PRR5-ARHGAP8 (11727945_x_at) / Fold change /veh ARHGAP8 /// PRR5-ARHGAP8 (11727945_x_at) / RFU KRTAP5-7 /// NADSYN1 (11734609_at) / Fold change /veh KRTAP5-7 /// NADSYN1 (11734609_at) / RFU RASL12 (11751679_a_at) / Fold change /veh RASL12 (11751679_a_at) / RFU CDKN2B (11736163_a_at) / Fold change /veh CDKN2B (11736163_a_at) / RFU PRF1 (11729649_at) / Fold change /veh PRF1 (11729649_at) / RFU, ZNF638 /// ZNF638-IT1 / Fold change vs veh, ZNF638 /// ZNF638-IT1 / RFU, PANK3 / Fold change vs veh, PANK3 / RFU, SH3YL1 / Fold change vs veh, SH3YL1 / RFU, ZEB2 / Fold change vs veh, ZEB2 / RFU, NRIP1 / Fold change vs veh, NRIP1 / RFU, PTTG1IP / Fold change vs veh, PTTG1IP / RFU, CAPN2 / Fold change vs veh, CAPN2 / RFU, MED14 / Fold change vs veh, MED14 / RFU, SNORA58 / Fold change vs veh, SNORA58 / RFU, C1orf63 / Fold change vs veh, C1orf63 / RFU, LRRFIP1 / Fold change vs veh, LRRFIP1 / RFU, NDUFAF7 / Fold change vs veh, NDUFAF7 / RFU, SLC12A2 / Fold change vs veh, SLC12A2 / RFU, IBTK / Fold change vs veh, IBTK / RFU, ESF1 / Fold change vs veh, ESF1 / Fold change vs veh, TMEM50B / RFU, TAOK1 / Fold change vs veh, TAOK1 / RFU, ACBD3 / Fold change vs veh, ACBD3 / RFU, TMA16 / Fold change vs veh, TMA16 / RFU, RWDD3 / Fold change vs veh, RWDD3 / RFU, BCAT1 / Fold change vs veh, BCAT1 / RFU, EDEM3 / Fold change vs veh, EDEM3 / RFU, TMEM33 / Fold change vs veh, TMEM33 / RFU, WDR75 / Fold change vs veh, WDR75 / RFU, AHCTF1 / Fold change vs veh, AHCTF1 / RFU, TFRC / Fold change vs veh, TFRC / RFU, ZDHHC17 / Fold change vs veh, ZDHHC17 / RFU, NOM1 / Fold change vs veh, NOM1 / RFU, ARL8B / Fold change vs veh, ARL8B / RFU, ZBTB11 / Fold change vs veh, ZBTB11 / RFU, TAMM41 / Fold change vs veh, TAMM41 / RFU, KIAA1704 /// LOC100996395 / Fold change vs veh, KIAA1704 /// LOC100996395 / RFU, ING1 / Fold change vs veh, ING1 / RFU, TRMT61B / Fold change vs veh, TRMT61B / RFU, FUBP3 / Fold change vs veh, FUBP3 / RFU, TP53 / Fold change vs veh, TP53 / RFU, TNKS2 / Fold change vs veh, TNKS2 / RFU, ZFP14 / Fold change vs veh, ZFP14 / RFU, ACTR2 / Fold change vs veh, ACTR2 / RFU, PPP3R1 / Fold change vs veh, PPP3R1 / RFU, PIK3R1 / Fold change vs veh, PIK3R1 / RFU, HNRNPA1 / Fold change vs veh, HNRNPA1 / RFU, RNF170 / Fold change vs veh, RNF170 / RFU, ZNF28 / Fold change vs veh, ZNF28 / RFU, RNGTT / Fold change vs veh, RNGTT / RFU, OGT / Fold change vs veh, OGT / RFU, BRD1 / Fold change vs veh, BRD1 / RFU, MARS / Fold change vs veh, MARS / RFU, ZNF655 / Fold change vs veh, ZNF655 / RFU, FAHD1 / Fold change vs veh, FAHD1 / RFU, BDP1 / Fold change vs veh, BDP1 / RFU, LRRCC1 / Fold change vs veh, LRRCC1 / RFU, ARID1A / Fold change vs veh, ARID1A / RFU, ZNF146 / Fold change vs veh, ZNF146 / RFU, ZNF330 / Fold change vs veh, ZNF330 / RFU, GPN3 / Fold change vs veh, GPN3 / RFU, C9orf123 / Fold change vs veh, C9orf123 / RFU, N4BP2L2 / Fold change vs veh, N4BP2L2 / RFU, ARFIP1 / Fold change vs veh, ARFIP1 / RFU, FAM179B / Fold change vs veh, FAM179B / RFU, BCL10 / Fold change vs veh, BCL10 / RFU, UHRF1BP1L / Fold change vs veh, UHRF1BP1L / RFU, BET1 / Fold change vs veh, BET1 / RFU, CNOT2 / Fold change vs veh, CNOT2 / RFU, ZNF268 / Fold change vs veh, ZNF268 / Fold change vs veh, ZNF507 / RFU, DGCR2 / Fold change vs veh, DGCR2 / RFU, WDSUB1 / Fold change vs veh, WDSUB1 / Fold change vs veh, HSP90B1 /// MIR3652 / RFU, ADSS / Fold change vs veh, ADSS / RFU, GK / Fold change vs veh, GK / RFU, ZNF148 / Fold change vs veh, ZNF148 / RFU, TAF9 / Fold change vs veh, TAF9 / RFU, SLC1A5 / Fold change vs veh, SLC1A5 / RFU, SLMO2 / Fold change vs veh, SLMO2 / RFU, ABCC4 / Fold change vs veh, ABCC4 / RFU, LOC101060439 /// RAP1B / Fold change vs veh, LOC101060439 /// RAP1B / RFU, RFX7 / Fold change vs veh, RFX7 / RFU, GTPBP10 / Fold change vs veh, GTPBP10 / RFU, CNEP1R1 / Fold change vs veh, CNEP1R1 / RFU, BIVM-ERCC5 /// ERCC5 / Fold change vs veh, BIVM-ERCC5 /// ERCC5 / RFU, ILF3 / Fold change vs veh, ILF3 / RFU 11762660_at / Fold change /veh 11762660_at / RFU VCAN (11757783_s_at) / Fold change /veh VCAN (11757783_s_at) / RFU DDX43 (11728927_at) / Fold change /veh DDX43 (11728927_at) / RFU KRT8 (11758188_x_at) / Fold change /veh KRT8 (11758188_x_at) / RFU NKD1 (11759106_at) / Fold change /veh NKD1 (11759106_at) / RFU SRD5A1 (11742802_a_at) / Fold change /veh SRD5A1 (11742802_a_at) / RFU TPSAB1 /// TPSB2 (11721975_s_at) / Fold change /veh TPSAB1 /// TPSB2 (11721975_s_at) / RFU GSTM3 (11746129_a_at) / Fold change /veh GSTM3 (11746129_a_at) / RFU IL23R (11737362_x_at) / Fold change /veh IL23R (11737362_x_at) / RFU TMEM51 (11727254_a_at) / Fold change /veh TMEM51 (11727254_a_at) / RFU PIWIL2 (11732686_x_at) / Fold change /veh PIWIL2 (11732686_x_at) / RFU ORM1 (11744905_x_at) / Fold change /veh ORM1 (11744905_x_at) / RFU CCDC152 (11743942_at) / Fold change /veh CCDC152 (11743942_at) / RFU ECM1 (11717891_a_at) / Fold change /veh ECM1 (11717891_a_at) / RFU IL23R (11748794_a_at) / Fold change /veh IL23R (11748794_a_at) / RFU TNFAIP8L3 (11732012_x_at) / Fold change /veh TNFAIP8L3 (11732012_x_at) / RFU MBOAT4 (11741988_at) / Fold change /veh MBOAT4 (11741988_at) / RFU 11764193_at / Fold change /veh 11764193_at / RFU TMEM53 (11763286_at) / Fold change /veh TMEM53 (11763286_at) / RFU MAGEB2 (11727129_at) / Fold change /veh MAGEB2 (11727129_at) / RFU TMEM200A (11744735_a_at) / Fold change /veh TMEM200A (11744735_a_at) / RFU CCDC152 (11751479_a_at) / Fold change /veh CCDC152 (11751479_a_at) / RFU FAM211A (11726209_a_at) / Fold change /veh FAM211A (11726209_a_at) / RFU RGS16 (11746705_a_at) / Fold change /veh RGS16 (11746705_a_at) / RFU VCAN (11755009_s_at) / Fold change /veh VCAN (11755009_s_at) / RFU RHOB (11743442_s_at) / Fold change /veh RHOB (11743442_s_at) / RFU RGS16 (11720943_a_at) / Fold change /veh RGS16 (11720943_a_at) / RFU RGS16 (11720944_at) / Fold change /veh RGS16 (11720944_at) / RFU, VPS4B / Fold change vs veh, VPS4B / RFU, CREB1 / Fold change vs veh, CREB1 / RFU, DNAJC13 / Fold change vs veh, DNAJC13 / RFU, GNAQ / Fold change vs veh, GNAQ / RFU, CDK5R1 / Fold change vs veh, CDK5R1 / RFU, ZRANB3 / Fold change vs veh, ZRANB3 / RFU, CUL4A / Fold change vs veh, CUL4A / RFU, CCNY / Fold change vs veh, CCNY / RFU, UFL1 / Fold change vs veh, UFL1 / RFU, COG3 / Fold change vs veh, COG3 / RFU, DIAPH2 / Fold change vs veh, DIAPH2 / RFU, SKA2 / Fold change vs veh, SKA2 / RFU, AFF3 / Fold change vs veh, AFF3 / RFU, LMF1 / Fold change vs veh, LMF1 / RFU, IPO11 / Fold change vs veh, IPO11 / RFU, DFFB / Fold change vs veh, DFFB / RFU, FOXP1 / Fold change vs veh, FOXP1 / RFU, CARD8 / Fold change vs veh, CARD8 / RFU, STRN3 / Fold change vs veh, STRN3 / RFU, ADK / Fold change vs veh, ADK / RFU, RASSF2 / Fold change vs veh, RASSF2 / RFU, WIPF1 / Fold change vs veh, WIPF1 / RFU, LARP1B / Fold change vs veh, LARP1B / RFU, RASA1 / Fold change vs veh, RASA1 / RFU, RB1 / Fold change vs veh, RB1 / RFU, PPFIA1 / Fold change vs veh, PPFIA1 / RFU, MAT2A / Fold change vs veh, MAT2A / RFU, CCT5 / Fold change vs veh, CCT5 / RFU, WDR92 / Fold change vs veh, WDR92 / RFU, CUX1 / Fold change vs veh, CUX1 / RFU, TTC7A / Fold change vs veh, TTC7A / RFU, TMEM135 / Fold change vs veh, TMEM135 / RFU, DEPTOR / Fold change vs veh, DEPTOR / RFU, CPM / Fold change vs veh, CPM / RFU, DNAJB6 / Fold change vs veh, DNAJB6 / RFU, CACNA2D3 / Fold change vs veh, CACNA2D3 / RFU, DTX4 / Fold change vs veh, DTX4 / RFU, TFCP2 / Fold change vs veh, TFCP2 / RFU, GMCL1 /// GMCL1P1 / Fold change vs veh, GMCL1 /// GMCL1P1 / RFU, AEBP2 / Fold change vs veh, AEBP2 / RFU, SNHG1 /// SNORD22 /// SNORD25 /// SNORD26 /// SNORD27 /// SNORD28 /// SNORD29 /// SNORD31 / Fold change vs veh, SNHG1 /// SNORD22 /// SNORD25 /// SNORD26 /// SNORD27 /// SNORD28 /// SNORD29 /// SNORD31 / Fold change (Aza/veh), C12orf56 (ProbeSet 11735607_a_at) / Fold change (ACY-1035/veh), C12orf56 (ProbeSet 11735607_a_at) / Fold change (Aza/veh), FGFR1OP (ProbeSet 11751329_s_at) / Fold change (ACY-1035/veh), FGFR1OP (ProbeSet 11751329_s_at) / Fold change (Aza/veh), VPS36 (ProbeSet 11739960_a_at) / Fold change (ACY-1035/veh), VPS36 (ProbeSet 11739960_a_at) / RFU SYPL1 (11715823_x_at) / Fold change /veh SYPL1 (11715823_x_at) / RFU IGFBP7 (11715501_s_at) / Fold change /veh IGFBP7 (11715501_s_at) / RFU REEP3 (11722064_at) / Fold change /veh REEP3 (11722064_at) / RFU IGLL1 (11728026_x_at) / Fold change /veh IGLL1 (11728026_x_at): dose or concentration left out as unconfirmed
Settings: MV-4-11 cells, 48 hours

Nc1ncn([C@@H]2O[C@H](CO)[C@@H](O)[C@H]2O)c(=O)n1 [azacitidine]
Fold change /veh CYB561 (11721691_x_at): 1.09
